Laboratory results: US20090123925A1, “CANCER THERAPY PROGNOSIS AND TARGET” (priority 2005, published 2009)
Like-named read-outs stand apart in the source and are kept apart here. Where a SMILES comes first, the peptide text is derived from it. The star is where a group is joined. Cbz = O=C(OCc1ccccc1)*; CH2F = FC*

Experiments:
Type in all cases: cell-based, human
[1] = tested on: oxaliplatin-resistant A549 cells (A549ox3, A549ox7.5); conditions: MTT, 72 hours
Description: (§1) The A549 cisplatin-, carboplatin- and oxaliplatin-cells were derived from the A549WT cell lines, by maintaining the cells in increasing concentrations of the relevant drug. […] This generated cisplatin-(A549cis1, A549cis2.5, A549cis5, A549cis7.5 and A549cis10), carboplatin-(A549car1, A549car2.5, A549car5, A549car10, A549car15 and A549car17.5) and oxaliplatin-(A549oxa2.5, A549oxa3, A549ox3.5, A549ox5 and A549oxa7.5) resistant A549 cell lines. The cells were exposed to each drug concentration for at least a 4-week period and allowed to recover in drug-free medium for a minimum of 2 weeks, before culture in a higher concentration of drug.
(§2) Cytotoxicity of each platinum drug in each cell line was determined by MTT (3-(4,5-dimethylthiazole-2-yl)-2,5-diphenyl tetrazolium bromide, Sigma) assay. Cells were seeded onto 96-well plates at a density of 2-3×10^3 cells per well and cultured for 24 hours. Then cells were incubated with relevant concentrations of carboplatin, cisplatin or oxaliplatin for 72 hours. After treatment, 30 μl of MTT (5 mg/ml) in PBS was incubated with cells in a 96-well plate for 4 h at 37° C. Subsequently, the medium containing MTT was removed, and 200 μl of DMSO was added to each well and shaken for 15 minutes. Spectrophotometric absorbance of each well was measured at 560 nm and 630 nm on a microplate reader (Bio-Rad, model 3550). GraphPad Prism 2.01 was used to calculate the IC50 of each platinum drug in different cell lines.
(§3) CA-074 Methyl ester (Sigma) was used to inhibit cathepsin B and caspase inhibitor I: (Z-VAD (OMe)-FMK, Calbiochem, UK) to inhibit caspases. Cathepsin L and K selective inhibitors (Cathepsin L inhibitor IV: Z-FF-FMK and Cathepsin K inhibitor I: 1,3-Bis (N-carbobenzoyloxy-L-leucyl) amino acetone, respectively (Calbiochem, UK)) and non-selective broad range cathepsin inhibitor (E-64d; (2S, 3S)-trans-epoxysuccinyl-L-leucylamido-3-methylbutane ethyl ester (Sigma, UK) were used to inhibit cysteine proteases.

[2] = tested on: carboplatin-resistant A549 cells (A549car15, A549car17.5); conditions: for Fold change of IC50 in resistant line vs. A549 parental line: A549car15 (exposed up to 15 μM carboplatin), MTT, 72 hours
Description: as §1, §2, §3

[3] = tested on: cisplatin-resistant A549 cells (A549cis7.5, A549cis10); conditions: for Fold change of IC50 in resistant line vs. A549 parental line: A549cis7.5 (exposed up to 7.5 μM cisplatin), MTT, 72 hours
Description: as §1, §2, §3

[4] = tested on: A549 wt cells; conditions: wild-type or resistant A549 NSCLC cells; data not shown
Protocol: The human NSCLC cell line A549 [from ATCC; CCL-185] was maintained in F12-K and RPMI 1640 (supplemented with 10% foetal bovine serum (FBS), 100 U/ml penicillin, and 100 μg/ml streptomycin at 37° C., 5% CO2) in an incubator.
as §2
CA-074 Methyl ester (Sigma) was used to inhibit cathepsin B and caspase inhibitor I: (Z-VAD (OMe)-FMK, Calbiochem, UK) to inhibit caspases. […]

[5] = A549ox7.5 (exposed up to 7.5 μM oxaliplatin)

N.N.O=C([O-])C1(C(=O)[O-])CCC1.[Pt+2] [carboplatin]
Fold change of IC50 in resistant line vs. A549 parental line [1, 5]: 1.5 fold
Level of resistance at higher drug concentration ([2]; A549 cells exposed to 17.5 μM carboplatin, compared with 15 μM): remained unchanged
Fold change of IC50 in resistant line vs. A549 parental line [3]: 3.4 fold

COC(=O)C[C@H](NC(=O)[C@H](C)NC(=O)[C@@H](NC(=O)OCc1ccccc1)C(C)C)C(=O)CF [caspase inhibitor I, Z-VAD (OMe)-FMK] (Cbz-Val-Ala-Asp(OMe)-CH2F)
Effect of caspase inhibition on sensitivity to platinum drugs [4]: did not alter

O=C1[O][Pt]2([NH][C@@H]3CCCC[C@H]3[NH]2)[O]C1=O [oxaliplatin]
Fold change of IC50 in resistant line vs. A549 parental line ([1]; A549 cells exposed up to 3 μM oxaliplatin): 3 fold
Fold change of IC50 in resistant line vs. A549 parental line [1, 5]: 5.3 fold
Fold change of IC50 in resistant line vs. A549 parental line [2]: 0.47 fold
Fold change of IC50 in resistant line vs. A549 parental line [3]: 0.54 fold

N.N.[Cl][Pt][Cl] [cisplatin]
Fold change of IC50 in resistant line vs. A549 parental line [1, 5]: 1.8 fold
Fold change of IC50 in resistant line vs. A549 parental line [2]: 3.02 fold
Level of resistance at higher drug concentration ([3]; A549 cells exposed to 10 μM cisplatin, compared with 7.5 μM): remained unchanged
